# Experimental data as given in US7148325B2, “Chimeric retroviral gag genes and screening assays” (priority 2000, dated 2006).
# “Also recorded” adds a separate entry of the source.
# Key:
# [1] = target: T1, M-PMV Gag (Mason-Pfizer monkey virus, UniProt P07567); assay: In vitro transcription/translation and assembly, sucrose density gradient fractionation and SDS-PAGE, M-PMV Gag; format: biochemical; details: added with cyclohexamide after 30 minutes of incubation, reaction continued 90 minutes
# T1 construct: made in house; host or cells: cell-free: coupled in vitro transcription/translation in rabbit reticulocyte lysate
# T1 sequence (P07567 whole entry): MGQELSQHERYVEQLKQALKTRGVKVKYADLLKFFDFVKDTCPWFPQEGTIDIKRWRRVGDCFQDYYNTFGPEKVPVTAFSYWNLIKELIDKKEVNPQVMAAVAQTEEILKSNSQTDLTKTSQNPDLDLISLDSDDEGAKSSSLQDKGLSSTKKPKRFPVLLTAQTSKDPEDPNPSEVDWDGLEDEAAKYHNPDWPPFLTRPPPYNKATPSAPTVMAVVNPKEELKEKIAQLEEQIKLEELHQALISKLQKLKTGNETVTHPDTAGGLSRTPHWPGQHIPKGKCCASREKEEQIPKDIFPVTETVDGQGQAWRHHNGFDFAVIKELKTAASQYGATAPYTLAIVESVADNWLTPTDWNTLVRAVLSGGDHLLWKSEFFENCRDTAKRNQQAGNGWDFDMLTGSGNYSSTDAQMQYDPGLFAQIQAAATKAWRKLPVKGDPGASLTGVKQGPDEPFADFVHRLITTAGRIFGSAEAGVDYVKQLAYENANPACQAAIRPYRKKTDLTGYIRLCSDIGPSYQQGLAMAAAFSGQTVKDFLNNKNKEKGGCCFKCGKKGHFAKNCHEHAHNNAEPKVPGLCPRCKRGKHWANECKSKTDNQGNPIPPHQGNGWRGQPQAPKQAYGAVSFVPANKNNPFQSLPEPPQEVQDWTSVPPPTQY
# Procedure: (§1) FIGS. 3A–E—In vitro transcription and translation reactions using plasmids containing M-PMV, HIV, and Chimera 3a gag genes. After 30 minutes of incubation, cyclohexamide (left panels, FIGS. 3A, 3C, and 3E) or cyclohexamide plus bis-ANS (right panels, FIGS. 3B, 3D, and 3F) were added to the reactions. The reactions were then allowed to continue for an additional 90 minutes. Assembled products were analyzed by sucrose density gradient fractionation and SDS-PAGE. Like M-PMV, but in contrast to HIV, the formation of sedimented material indicative of particle formation by Chimera 3a has been inhibited by the addition of bis-ANS.
# FIGS. 4A–D—In vitro transcription and translation reactions using plasmids containing M-PMV and Chimera 4 gag genes. After 30 minutes of incubation, cyclohexamide (left panels, FIGS. 4A and 4C) or cyclohexamide plus bis-ANS (right panels, FIGS. 4B and 4D) were added to the reactions. The reactions were then allowed to continue for an additional 90 minutes. Assembled products were analyzed by sucrose density gradient fractionation and SDS-PAGE. Like M-PMV, the formation of sedimented material by Chimera 4 has been inhibited by the addition of bis-ANS. Lanes L and P indicate the loading material and re-suspended pellet, respectively. […]
# [2] = target: T2, Chimera 4 (Human immunodeficiency virus type 1 group M subtype B, UniProt P04591); assay: In vitro transcription/translation and assembly, sucrose density gradient fractionation and SDS-PAGE, Chimera 4 Gag; format: biochemical, HIV / M-PMV; details: added with cyclohexamide after 30 minutes of incubation, reaction continued 90 minutes
# T2 construct: the megaprimer reaction yielded a product that contained all of HIV Gag fused to M-PMV p12; made in house; host or cells: cell-free: in vitro transcription/translation (reticulocyte lysate) from plasmid pDABCh4
# Procedure: FIGS. 4A–D—In vitro transcription and translation reactions using plasmids containing M-PMV and Chimera 4 gag genes. After 30 minutes of incubation, cyclohexamide (left panels, FIGS. 4A and 4C) or cyclohexamide plus bis-ANS (right panels, FIGS. 4B and 4D) were added to the reactions. The reactions were then allowed to continue for an additional 90 minutes. Assembled products were analyzed by sucrose density gradient fractionation and SDS-PAGE. Like M-PMV, the formation of sedimented material by Chimera 4 has been inhibited by the addition of bis-ANS. Lanes L and P indicate the loading material and re-suspended pellet, respectively.
# (§2) In vitro assembly assays, such as that taught by Sakalian, M., et al. (1996), “Synthesis and assembly of retrovirus Gag precursors into immature capsids in vitro,” J Virol 70, pp. 3706–15, hereby incorporated by reference in its entirety, maybe used to screen for inhibitors of capsid assembly. Briefly, in vitro transcription of chimeric gag -containing plasmids to produce capped RNA transcripts may be performed using the mMESSAGE MMACHINE kit (Ambion, Austin, Tex.), in accordance with the manufacturers instructions. Translation reactions may be performed in the presence of [^35S]methionine in commercially-available rabbit reticulocyte lysates, according to the instructions of the manufacturer (for example, Promega). […]
# [3] = target: T3, HIV Gag (Human immunodeficiency virus type 1 group M subtype B, UniProt P04591); assay: In vitro transcription/translation, sucrose density gradient fractionation and SDS-PAGE, HIV Gag; format: biochemical; details: added with cyclohexamide after 30 minutes of incubation, reaction continued 90 minutes
# T3 construct: made in house; host or cells: cell-free: in vitro transcription/translation (reticulocyte lysate)
# Procedure: as §1, §2
# [4] = target: T1, M-PMV Gag; assay: In vitro transcription/translation, pelleting through a sucrose cushion (rapid centrifugation assay), M-PMV Gag; format: biochemical; details: added after 30 minutes, continued 90 minutes; sucrose cushion 35% w/v
# Procedure: FIG. 5—In vitro transcription and translation reactions using plasmids containing M-PMV gag genes. After 30 minutes of incubation, anti-p 12 antibody or bis-ANS was added to the reactions. The reactions were then allowed to continue for an additional 90 minutes. Assembled products were analyzed by pelleting through a sucrose cushion (35% w/v). Synthesis reactions were pelleted through a sucrose cushion, and supernatant and pellet were then collected for gel analysis. […] Lanes S and P indicate supernatant and pellet, respectively.
# [5] = target: T4, Chimera 3a (Human immunodeficiency virus type 1 group M subtype B, UniProt P04591); assay: In vitro transcription/translation and assembly, sucrose density gradient fractionation and SDS-PAGE, Chimera 3a Gag; format: biochemical, HIV / M-PMV; details: added with cyclohexamide after 30 minutes of incubation, reaction continued 90 minutes
# T4 construct: made in house; host or cells: cell-free: in vitro transcription/translation (reticulocyte lysate) from plasmid pDABCh3a
# Procedure: as §1, §2
smiles,measurement,setting,value
O=S(=O)(O)c1cccc2c(-c3ccc(Nc4ccccc4)c4c(S(=O)(=O)O)cccc34)ccc(Nc3ccccc3)c12 [bis-ANS],formation of sedimented material by M-PMV Gag,[1],inhibited
same,formation of sedimented material by Chimera 4,[2],inhibited; also recorded: largely blocked
same,distribution of HIV Gag in sucrose gradients,[3],no effect
same,formation of pelletable material by M-PMV Gag (immature M-PMV viral capsids),[4],reduce or prevent; also recorded: significantly reduce
same,formation of sedimented material indicative of particle formation by Chimera 3a,[5],inhibited; also recorded: largely blocked
